# From paper PMC6220272, “Scaffold-Hopping from Synthetic Drugs by Holistic Molecular Representation” (Scientific Reports, 2018)
# Key:
# Format in all cases: cell-based
# [1] = biological target: T1, human RXRα ligand binding domain (Gal4 hybrid receptor) (Homo sapiens, UniProt P19793); experiment: Gal4 hybrid reporter gene assay RXRα; conditions: HEK293T cells, n ≥ 4, read-out: RXRα EC50 ± SEM
# T1 construct: expressed in transfected cells; host or cells: HEK293T
# T1 sequence (P19793 227-458 limits assumed): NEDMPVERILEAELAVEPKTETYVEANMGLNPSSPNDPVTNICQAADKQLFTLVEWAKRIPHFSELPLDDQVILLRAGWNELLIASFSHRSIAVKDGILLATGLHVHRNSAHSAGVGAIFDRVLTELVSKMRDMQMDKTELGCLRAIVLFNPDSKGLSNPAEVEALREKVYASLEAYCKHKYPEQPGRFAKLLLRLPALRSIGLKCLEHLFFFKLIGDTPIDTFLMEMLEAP
# Experimental: (§1) The 20 top-ranked synthetic compounds were selected and tested in vitro for their modulatory activity on RXR (Supplementary Table 1). Compounds were tested in specific hybrid reporter gene assays for RXRα, RXRβ and RXRγ modulation[39]–[41]. These assays rely on a constitutively expressed hybrid receptor composed of the respective human RXR ligand binding domain and the DNA binding domain of the Gal4 receptor from yeast. A Gal4 responsive firefly luciferase was used as reporter gene and constitutively expressed renilla luciferase served as internal control for transfection efficiency and test compound toxicity. All selected compounds were tested at 50 µM concentration on RXRα and for active compounds (Supplementary Fig. 1), dose response curves were recorded on all three RXR subtypes.
# (§2) The Gal4 hybrid reporter gene assays were conducted as reported previously[39]–[41]. pFA-CMV-based constructs comprising the ligand binding domain of the human nuclear receptor in question were used as expression plasmids for the chimera receptors. pFR-Luc (Stratagene) served as reporter plasmid and pRL-SV40 (Promega) for normalization of transfection efficiency and cell growth. The assays were conducted in 96-well format in HEK293T cells that were cultured as described previously[39]–[41]. Transient transfection was carried out using Lipofectamine LTX reagent (Invitrogen) according to the manufacturer’s protocol. After transfection and incubation with test compounds (12–14 h), cells were assayed for luciferase activity using Dual-Glo™ Luciferase Assay System (Promega) according to the manufacturer’s protocol. Luminescence was measured with an Infinite M200 luminometer (Tecan Deutschland GmbH). All hybrid assays were validated with reference agonists (PPARα: GW7647; PPARγ: pioglitazone; PPARδ: L165,041; LXRα/β: T0901317; FXR: GW4064; RXRs: bexarotene; RARs: tretinoin; VDR: calcitriol; CAR: CITCO; PXR: SR12813) which yielded EC50 values in agreement with literature. The assays were conducted in duplicates with at least two independent repeats and for active compounds repeated without hybrid receptor coding DNA for every test compound at the highest tested concentration to exclude unspecific effects.
# (§3) Supplementary Figure 2. Dose-response curves for RXRα activation. Compounds were tested in specific hybrid reporter gene assays for RXRα, RXRβ and RXRγ modulation.^1–3 These assays rely on a constitutively expressed hybrid receptor composed of the respective human RXR ligand binding domain and the DNA binding domain of the Gal4 receptor from yeast. A Gal4 responsive firefly luciferase was used as reporter gene and constitutively expressed renilla luciferase served as internal control for transfection efficiency and test compound toxicity. […]
# [2] = biological target: T2, human RXRβ ligand binding domain (Gal4 hybrid receptor) (Homo sapiens, UniProt P28702); experiment: Gal4 hybrid reporter gene assay RXRβ; conditions: HEK293T cells, n ≥ 4, read-out: RXRβ EC50 ± SEM
# T2 construct: expressed in transfected cells; host or cells: HEK293T
# T2 sequence (P28702 296-529 limits assumed): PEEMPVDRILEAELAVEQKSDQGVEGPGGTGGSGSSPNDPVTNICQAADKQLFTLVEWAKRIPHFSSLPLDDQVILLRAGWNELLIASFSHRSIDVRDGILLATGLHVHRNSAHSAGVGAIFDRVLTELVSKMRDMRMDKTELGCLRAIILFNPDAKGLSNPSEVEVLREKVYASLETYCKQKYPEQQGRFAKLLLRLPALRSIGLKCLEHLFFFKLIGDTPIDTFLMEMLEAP
# Experimental: as §1, §2, §3
# [3] = biological target: T3, human RXRγ ligand binding domain (Gal4 hybrid receptor) (Homo sapiens, UniProt P48443); experiment: Gal4 hybrid reporter gene assay RXRγ; conditions: HEK293T cells, n ≥ 4, read-out: RXRγ EC50 ± SEM
# T3 construct: expressed in transfected cells; host or cells: HEK293T
# T3 sequence (P48443 231-459 limits assumed): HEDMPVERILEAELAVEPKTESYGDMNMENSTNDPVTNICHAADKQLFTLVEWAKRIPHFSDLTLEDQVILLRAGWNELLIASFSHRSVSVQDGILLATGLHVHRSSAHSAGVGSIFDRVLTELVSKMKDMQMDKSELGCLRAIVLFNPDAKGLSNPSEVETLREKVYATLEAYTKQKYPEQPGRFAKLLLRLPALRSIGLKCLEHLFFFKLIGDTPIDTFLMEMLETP
# Experimental: as §1, §2, §3
EC50 [1] [µM],EC50 [2] [µM],EC50 [3] [µM],SMILES
17 ± 1,14.7 ± 0.8,15 ± 0.6,Cc1ccc(NC2=NC(=O)/C(=C/c3ccc(O)cc3)S2)cc1C [Compound 5]
23.7 ± 0.7,25.6 ± 0.4,32 ± 3,CC/C(=N/NC(=S)Nc1ccc(Cl)cc1Cl)c1ccc(O)cc1 [Compound 8]
16.5 ± 0.6,16.6 ± 0.2,16 ± 4,CC(NC(=O)c1cccc(OCc2ccccc2)c1)c1ccccc1 (stereo not drawn) [Compound 6]
